Results taken from patent US20250041429A1, “COMPOUND HAVING BTK PROTEIN DEGRADATION ACTIVITY, AND MEDICAL USES THEREOF” (UBIX THERAPEUTICS, INC., priority 2021, published 2025).

Target: T1, BTK protein (Homo sapiens, UniProt Q06187)
T1 construct: endogenous in cells; host or cells: TMD-8 cells
Assay: Measurement of BTK protein degradation ability in TMD-8 cells (Western blotting)
Format: cell-based
Settings: harvested after 24 hours; for BTK degradation (%) 1 nM: compound 1 nM; for BTK degradation (%) 10 nM: compound 10 nM; for BTK degradation (%) 100 nM: compound 100 nM
Outline: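 TMD-8 cells (1×10^6/mL) were treated for 24 h with compound at 0.1, 1, 10 μM or 0.0001–0.1 μM, with DMSO as vehicle control. RIPA lysates were normalized by BCA assay. BTK was detected by Western blot with anti-BTK, using GAPDH or β-actin as loading controls, and imaged on LI-COR Odyssey.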

T1 sequence (Q06187 whole entry): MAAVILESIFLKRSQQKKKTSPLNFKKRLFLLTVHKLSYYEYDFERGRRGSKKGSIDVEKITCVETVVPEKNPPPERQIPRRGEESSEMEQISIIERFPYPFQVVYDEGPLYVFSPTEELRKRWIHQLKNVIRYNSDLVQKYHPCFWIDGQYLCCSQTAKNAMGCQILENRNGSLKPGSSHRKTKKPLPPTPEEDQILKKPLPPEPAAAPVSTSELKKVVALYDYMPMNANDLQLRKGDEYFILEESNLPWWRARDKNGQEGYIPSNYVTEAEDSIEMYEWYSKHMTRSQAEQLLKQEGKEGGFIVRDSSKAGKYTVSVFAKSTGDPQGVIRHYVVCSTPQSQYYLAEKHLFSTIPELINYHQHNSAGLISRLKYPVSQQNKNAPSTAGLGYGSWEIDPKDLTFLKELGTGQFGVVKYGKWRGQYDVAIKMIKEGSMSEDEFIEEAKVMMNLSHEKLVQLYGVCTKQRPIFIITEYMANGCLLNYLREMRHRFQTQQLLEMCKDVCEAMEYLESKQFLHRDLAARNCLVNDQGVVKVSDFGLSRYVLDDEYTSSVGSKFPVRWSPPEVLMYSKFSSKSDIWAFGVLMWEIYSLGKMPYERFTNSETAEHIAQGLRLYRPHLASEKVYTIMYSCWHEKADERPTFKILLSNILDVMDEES

| BTK degradation (%) 1 nM [%] | BTK degradation (%) 10 nM [%] | BTK degradation (%) 100 nM [%] | Compound |
| --- | --- | --- | --- |
| 27.5 | 85.0 | 99.0 | Cc1cc(-c2ccnc(Nc3ccc(N4CCC(CN5CCC(c6ccc(NC7CCC(=O)NC7=O)cc6)CC5)CC4)nc3)n2)ccc1CNC(=O)N1CC(OC(C)C)C1 (stereo not drawn) [Example 145, N-(4-(2-((6-(4-((4-(4-((2,6-dioxopiperidin-3-yl)amino)phenyl)piperidin-1-yl)methyl)piperidin-1-yl)pyridin-3-yl)amino)pyrimidin-4-yl)-2-methylbenzyl)-3-isopropoxyazetidine-1-carboxamide] |
| 26.5 | 88.0 | 99.0 | Cc1cc(-c2ccnc(Nc3ccc(N4CCC(CN5CCC(c6ccc(NC7CCC(=O)NC7=O)cc6)CC5)CC4)nc3)n2)ccc1CNC(=O)c1cn(C(C)(C)C)nn1 (stereo not drawn) [Example 146, 1-(tert-butyl)-N-(4-(2-((6-(4-((4-(4-((2,6-dioxopiperidin-3-yl)amino)phenyl)piperidin-1-yl)methyl)piperidin-1-yl)pyridin-3-yl)amino)pyrimidin-4-yl)-2-methylbenzyl)-1H-1,2,3-triazole-4-carboxamide] |
